Earlier results as cited in US8410096B2, “Antitumor agent, kit and method of treating cancer” (Shizuoka Prefecture, priority 2008, dated 2013).

System: 5-FU decomposition
Details: compared with uracil

5-FU decomposition inhibitory action relative to uracil: about 200 times
SMILES: Oc1cc(O)c(Cl)cn1 [gimeracil, 2,4-dihydroxy-5-chloropyridine]
